From PubChem BioAssay (NCI)
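Method: 48-hour compound exposure of cells in 96-well plates, five concentrations, linear interpolation of endpoints. GI50 marks 50% less growth. At the TGI there is no net growth.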

Tests used:
Experiment in all cases: inhibition of tumour cell growth, NCI panel, 48 h
MOLT-4 leukemia = test system: MOLT-4 leukemia
HCC-2998 colon = test system: HCC-2998 colon
SK-OV-3 ovarian = test system: SK-OV-3 ovarian
SF-268 CNS = test system: SF-268 CNS
A549 NSCLC = test system: A549 NSCLC
KM12 colon = test system: KM12 colon
M14 melanoma = test system: M14 melanoma
TK-10 renal = test system: TK-10 renal
A498 renal = test system: A498 renal
NCI-H522 lung = test system: NCI-H522 lung
PC-3 prostate = test system: PC-3 prostate
LOX IMVI melanoma = test system: LOX IMVI melanoma
MCF7 breast = test system: MCF7 breast
UO-31 renal = test system: UO-31 renal
EKVX NSCLC = test system: EKVX NSCLC
SNB-19 CNS = test system: SNB-19 CNS
OVCAR-4 ovarian = test system: OVCAR-4 ovarian
RPMI-8226 leukemia = test system: RPMI-8226 leukemia
SK-MEL-5 melanoma = test system: SK-MEL-5 melanoma
U251 CNS = test system: U251 CNS
SNB-75 CNS = test system: SNB-75 CNS
NCI/ADR-RES ovarian = test system: NCI/ADR-RES ovarian
NCI-H23 lung = test system: NCI-H23 lung
HS 578T breast = test system: HS 578T breast
COLO 205 colon = test system: COLO 205 colon
OVCAR-5 ovarian = test system: OVCAR-5 ovarian
NCI-H460 lung = test system: NCI-H460 lung
786-0 renal = test system: 786-0 renal
SK-MEL-2 melanoma = test system: SK-MEL-2 melanoma
OVCAR-8 ovarian = test system: OVCAR-8 ovarian
CAKI-1 renal = test system: CAKI-1 renal
RXF 393 renal = test system: RXF 393 renal
HT29 colon = test system: HT29 colon
BT-549 breast = test system: BT-549 breast
HL-60(TB) leukemia = test system: HL-60(TB) leukemia
HOP-62 NSCLC = test system: HOP-62 NSCLC
UACC-62 melanoma = test system: UACC-62 melanoma
SW-620 colon = test system: SW-620 colon
SK-MEL-28 melanoma = test system: SK-MEL-28 melanoma
UACC-257 melanoma = test system: UACC-257 melanoma
SF-295 CNS = test system: SF-295 CNS
SR leukemia = test system: SR leukemia
IGROV1 ovarian = test system: IGROV1 ovarian
MDA-MB-231 breast = test system: MDA-MB-231 breast
CCRF-CEM leukemia = test system: CCRF-CEM leukemia
MDA-MB-435 = test system: MDA-MB-435
ACHN renal = test system: ACHN renal
HOP-92 NSCLC = test system: HOP-92 NSCLC
NCI-H226 lung = test system: NCI-H226 lung
SN12C renal = test system: SN12C renal
MALME-3M melanoma = test system: MALME-3M melanoma
HCT-116 colon = test system: HCT-116 colon
OVCAR-3 ovarian = test system: OVCAR-3 ovarian
DU-145 prostate = test system: DU-145 prostate
SF-539 CNS = test system: SF-539 CNS
T-47D breast = test system: T-47D breast

Cc1ccc2c(n1)C(=O)C(Cl)=C(Nc1cc(C(F)(F)F)cc(C(F)(F)F)c1)C2=O
GI50 (MOLT-4 leukemia): 0.305 µM
TGI (MOLT-4 leukemia): 1.05 µM
GI50 (HCC-2998 colon): 4.61 µM
TGI (HCC-2998 colon): 18.2 µM
GI50 (SK-OV-3 ovarian): 13.9 µM
TGI (SK-OV-3 ovarian): 27.1 µM
GI50 (SF-268 CNS): 6.38 µM
TGI (SF-268 CNS): 23.5 µM
GI50 (A549 NSCLC): 16.9 µM
TGI (A549 NSCLC): 38 µM
GI50 (KM12 colon): 12.3 µM
TGI (KM12 colon): 28.9 µM
GI50 (M14 melanoma): 4.24 µM
TGI (M14 melanoma): 17.9 µM
GI50 (TK-10 renal): 1.88 µM
TGI (TK-10 renal): 3.31 µM
GI50 (A498 renal): 8.72 µM
TGI (A498 renal): 22 µM
GI50 (NCI-H522 lung): 1.95 µM
TGI (NCI-H522 lung): 5.97 µM
GI50 (PC-3 prostate): 5.29 µM
TGI (PC-3 prostate): 20 µM
GI50 (LOX IMVI melanoma): 1.6 µM
TGI (LOX IMVI melanoma): 3.49 µM
GI50 (MCF7 breast): 2.13 µM
TGI (MCF7 breast): 5.45 µM
GI50 (UO-31 renal): 1.41 µM
TGI (UO-31 renal): 2.83 µM
GI50 (EKVX NSCLC): 2.22 µM
TGI (EKVX NSCLC): 5.45 µM
GI50 (SNB-19 CNS): 13.8 µM
TGI (SNB-19 CNS): 40.1 µM
GI50 (OVCAR-4 ovarian): 1.44 µM
TGI (OVCAR-4 ovarian): 2.79 µM
GI50 (RPMI-8226 leukemia): 1.58 µM
TGI (RPMI-8226 leukemia): 5.14 µM
GI50 (SK-MEL-5 melanoma): 3.28 µM
TGI (SK-MEL-5 melanoma): 11.4 µM
GI50 (U251 CNS): 10.3 µM
TGI (U251 CNS): 23.5 µM
GI50 (SNB-75 CNS): 9.23 µM
TGI (SNB-75 CNS): 22.6 µM
GI50 (NCI/ADR-RES ovarian): 2.74 µM
TGI (NCI/ADR-RES ovarian): 8.6 µM
GI50 (NCI-H23 lung): 1.92 µM
TGI (NCI-H23 lung): 4.94 µM
GI50 (HS 578T breast): 10.6 µM
TGI (HS 578T breast): 76.4 µM
GI50 (COLO 205 colon): 1.93 µM
TGI (COLO 205 colon): 4.31 µM
GI50 (OVCAR-5 ovarian): 19.4 µM
TGI (OVCAR-5 ovarian): 38.4 µM
GI50 (NCI-H460 lung): 13.7 µM
TGI (NCI-H460 lung): 36.8 µM
GI50 (786-0 renal): 1.72 µM
TGI (786-0 renal): 3.36 µM
GI50 (SK-MEL-2 melanoma): 3.96 µM
TGI (SK-MEL-2 melanoma): 15.6 µM
GI50 (OVCAR-8 ovarian): 4.16 µM
TGI (OVCAR-8 ovarian): 24.2 µM
GI50 (CAKI-1 renal): 1.5 µM
TGI (CAKI-1 renal): 2.94 µM
GI50 (RXF 393 renal): 1.46 µM
TGI (RXF 393 renal): 2.82 µM
GI50 (HT29 colon): 2.39 µM
TGI (HT29 colon): 6.18 µM
GI50 (BT-549 breast): 1.86 µM
TGI (BT-549 breast): 6.61 µM
GI50 (HL-60(TB) leukemia): 0.547 µM
TGI (HL-60(TB) leukemia): 2.58 µM
GI50 (HOP-62 NSCLC): 15.9 µM
TGI (HOP-62 NSCLC): 31.3 µM
GI50 (UACC-62 melanoma): 4.97 µM
TGI (UACC-62 melanoma): 19.3 µM
GI50 (SW-620 colon): 2.29 µM
TGI (SW-620 colon): 5.32 µM
GI50 (SK-MEL-28 melanoma): 2.21 µM
TGI (SK-MEL-28 melanoma): 4.29 µM
GI50 (UACC-257 melanoma): 1.68 µM
TGI (UACC-257 melanoma): 3.3 µM
GI50 (SF-295 CNS): 12.6 µM
TGI (SF-295 CNS): 25.8 µM
GI50 (SR leukemia): 0.31 µM
TGI (SR leukemia): 1.98 µM
GI50 (IGROV1 ovarian): 3.6 µM
TGI (IGROV1 ovarian): 14.1 µM
GI50 (MDA-MB-231 breast): 3.54 µM
TGI (MDA-MB-231 breast): 14 µM
GI50 (CCRF-CEM leukemia): 0.651 µM
TGI (CCRF-CEM leukemia): 3.59 µM
GI50 (MDA-MB-435): 4.67 µM
TGI (MDA-MB-435): 16.4 µM
GI50 (ACHN renal): 1.92 µM
TGI (ACHN renal): 3.42 µM
GI50 (HOP-92 NSCLC): 1.57 µM
TGI (HOP-92 NSCLC): 3.51 µM
GI50 (NCI-H226 lung): 5.36 µM
TGI (NCI-H226 lung): 41.5 µM
GI50 (SN12C renal): 4.55 µM
TGI (SN12C renal): > 100 µM
GI50 (MALME-3M melanoma): 1.67 µM
TGI (MALME-3M melanoma): 3.58 µM
GI50 (HCT-116 colon): 1.43 µM
TGI (HCT-116 colon): 2.94 µM
GI50 (OVCAR-3 ovarian): 1.61 µM
TGI (OVCAR-3 ovarian): 3.02 µM
GI50 (DU-145 prostate): 2.6 µM
TGI (DU-145 prostate): 6.47 µM
GI50 (SF-539 CNS): 5.4 µM
TGI (SF-539 CNS): 18.3 µM
GI50 (T-47D breast): 1.63 µM
TGI (T-47D breast): 5.18 µM
